Data published in ChEMBL document CHEMBL5241073, “Pharmacological Targeting of Executioner Proteins: Controlling Life and Death” (J Med Chem, 2021).

Molecular target: Apoptosis regulator BAX (Homo sapiens, UniProt Q07812)
Test: Inhibition of recombinant human BAX expressed in Escherichia coli BL21 (DE3) assessed as inhibition of liposome permeabilization and measured for 2 hrs by fluorescence analysis

Apoptosis regulator BAX, sequence (Q07812 whole entry): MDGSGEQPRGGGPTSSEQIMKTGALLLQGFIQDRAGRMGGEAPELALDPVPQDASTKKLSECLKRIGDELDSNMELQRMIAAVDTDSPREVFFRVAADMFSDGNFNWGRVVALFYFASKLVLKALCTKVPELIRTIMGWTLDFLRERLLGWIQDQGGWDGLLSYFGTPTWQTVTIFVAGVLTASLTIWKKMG

Row | IC50 [µM] | SMILES
1 | 4 | COCCOCOc1ccc2c(c1)O[C@H](CN(Cc1ccc(Br)cc1)C(=O)[C@H](Cc1ccccc1)NC(=O)c1ccccc1)[C@H]2N
2 | 6 | COCCOCOc1ccc2c(c1)O[C@H](CN)[C@H]2N(Cc1ccc(Br)cc1)C(=O)[C@H](Cc1ccccc1)NC(=O)c1ccccc1
